Reference: US7846735B2, “Compositions and methods for lipoprotein uptake assays” (General Electric Company, priority 2006, dated 2010)

How the values were obtained:
[1] = pH dependence of dye fluorescence; format: physicochemical
Excerpt: The assays employ a pH-sensing cyanine dye, which is minimally fluorescent at neutral pH outside the cell, but highly fluorescent in the acidic environment (pKa ˜7.3; excitation peak 650 nm/emission peak 670 nm). In most instances, the lipoproteins or modified lipoproteins are taken up by cell-surface receptors through the process of receptor-mediated endocytosis. Once internalized, lipoproteins are transported to highly acidic vesicles. When labeled with CypHer5E dye, lipoproteins are minimally fluorescent at neutral pH outside the cell, but highly fluorescent in the acidic environment of the uptake vesicle. This translates into high signal-to-noise ratio compared to traditional dyes that are equally fluorescent inside or outside the cell. Additionally, the disclosed methods eliminate washing steps required for removal of excess of labeled lipoprotein in the media at the end of the protocol. […]
CypHer5E dye is 3 to 20 times more fluorescent in the acidic environment of the intracellular vesicles than at neutral pH outside the cell (pKa ˜7.3; excitation peak 650 nm/emission peak 670 nm). CypHer5E dye fluorescence is enhanced by the acidic conditions of lipoprotein-containing intracellular vesicles after receptor-mediated lipoprotein after the CypHer5E-AcLDL is internalized.

[2] = target: T1, scavenger receptor A (SR-A, CD204) (Mus musculus, UniProt P30204); experiment: Inhibition of CypHer5E-AcLDL uptake by known SR-A ligands; format: cell-based; conditions: RAW264.7 mouse macrophages, FIG. 7
T1 construct: endogenous in cells; host or cells: RAW264.7 mouse macrophages
T1 sequence (P30204 1-458): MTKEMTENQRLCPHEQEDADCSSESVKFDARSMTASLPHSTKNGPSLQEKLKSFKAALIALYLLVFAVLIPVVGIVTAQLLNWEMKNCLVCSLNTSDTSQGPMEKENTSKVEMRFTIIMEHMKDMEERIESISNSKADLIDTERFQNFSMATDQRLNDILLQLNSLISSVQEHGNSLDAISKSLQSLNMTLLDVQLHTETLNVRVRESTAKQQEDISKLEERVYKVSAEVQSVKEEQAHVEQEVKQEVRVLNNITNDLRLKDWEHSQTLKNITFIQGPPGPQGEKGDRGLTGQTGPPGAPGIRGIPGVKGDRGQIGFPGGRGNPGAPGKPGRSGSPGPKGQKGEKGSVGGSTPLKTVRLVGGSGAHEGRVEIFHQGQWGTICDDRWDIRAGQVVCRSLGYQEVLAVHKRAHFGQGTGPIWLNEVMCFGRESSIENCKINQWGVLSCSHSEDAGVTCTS
Experimental: RAW264.7 Mouse Macrophages, J774A.1 Mouse Macrophages, U-2 OS Human Osteosarcoma Cells were seeded in standard cell culture flasks and cultured in Dulbecco's Modified Eagle Medium (DMEM) with 10% fetal bovine serum (FBS) until about 70% to about 80% confluent. On the day of the assay, the cells were washed twice with serum-free DMEM, and incubated for 30 minutes in cell culture incubator in DMEM containing 1 μM Cell Tracker Green dye. After staining with Cell Tracker Green dye, cells were washed three times with serum-free DMEM, scraped from tissue culture flask, and resuspended in DMEM with 12.5% Fetal Bovine Lipoprotein Deficient Serum (FBLDS) at 250,000 cells/ml.
80 μl of Cell Tracker Green-labeled cells at 250,000 cells/ml were added to each well of ViewPlate 96-well plate in DMEM with 12.5% Fetal Bovine Lipoprotein Deficient Serum (FBLDS). For inhibitor studies, 10 μl of 10-fold stock of the inhibitor in DMEM containing 10% dimethyl sulfoxide (DMSO) were added to each well. 10 μl of DMEM containing 10% DMSO were added for control wells. Cells were pre-incubated for 30 minutes at 37° C. in a cell culture incubator in the presence of the inhibitor before addition of labeled AcLDL. At the end of pre-incubation period, 10 μl of 100 μg/ml CypHer5E-AcLdL solution were added to each well. The incubation continued for another 2 to 18 hours at 37° C. in cell culture incubator before imaging. The Dil AcLDL complex assay was identical to CypHer5E-AcLDL assay except that Dil AcLDL complex was added to cells in place of CypHer5E-AcLDL conjugate.
Following incubation, images of CypHer5E-AcLDL uptake were acquired on IN Cell Analyzer 1000 or 3000 (GE Healthcare) using a 10× or 20× objective and FITC/Cy5 excitation/emission filters. Analysis was performed using Granularity Analysis and Object Intensity Analysis Modules within IN Cell Analyzer system software suite or using Developer™ Image Analysis software.

Compound | pKa [1] | inhibition of pH-sensing cyanine dye conjugate uptake (in words) [2]
CC1(C)C(/C=C/C=C/C=C2/Nc3ccc(S(=O)(=O)O)cc3C2(C)CCCCCC(=O)O)=[N+](CCCCS(=O)(=O)[O-])c2ccc(S(=O)(=O)O)cc21 (stereo not shown) [CypHer5E, 2-{[1E,3E,5E)-5-(3-methyl-3-(5-carboxypentyl)-5-sulfo-1,3-dihydro-2H-indol-2-ylidene]-1,3-pentadienyl}-3,3-dimethyl-5-sulfo-1-(4-sulfobutyl)-3H-indolium] | ~7.3 | 
Dextran Sulfate MW 500,000 [Dex SO4] |  | inhibition
Polyguanylic acid potassium salt [poly G] |  | inhibition
Polyinosinic acid potassium salt [poly I] |  | inhibition
